Results reported in patent publication US10947252B2, “Inhibitors of KEAP1-Nrf2 protein-protein interaction” (Janssen Pharmaceutica NV, priority 2018, dated 2021).

System: Glo-Response ARE-luc2P HEK293 cell line
Test: ARE luciferase reporter cell-based assay;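 also: luciferase signal tracks Nrf2 activation of the ARE once compounds disrupt KEAP1-Nrf2 binding, read with One-Glo reagent, DMSO serving as low control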
Conditions: 24 hours, average of results obtained

SMILES	EC50 [nM]
Cc1ccc([C@H](CC(=O)O)c2ccn3c(C(F)(F)F)nnc3c2C)cc1CN1C[C@@H]2COCCN2c2ncccc2S1(=O)=O (relative stereo) [Example 276, (*S)-3-(3-(((*R)-5,5-Dioxido-7a,8,10,11-tetrahydro-[1,4]oxazino[3,4-d]pyrido[2,3-f][1,2,5]thiadiazepin-6(7H)-yl)methyl)-4-methylphenyl)-3-(8-methyl-3-(trifluoromethyl)-[1,2,4]triazolo[4,3-a]pyridin-7-yl)propanoic Acid]	112
Cc1ccc([C@@H](CC(=O)O)c2ccn3c(C(F)(F)F)nnc3c2C)cc1CN1C[C@@H]2COCCN2c2ncccc2S1(=O)=O (relative stereo) [Example 277, (*R)-3-(3-(((*R)-5,5-Dioxido-7a,8,10,11-tetrahydro-[1,4]oxazino[3,4-d]pyrido[2,3-f][1,2,5]thiadiazepin-6(7H)-yl)methyl)-4-methylphenyl)-3-(8-methyl-3-(trifluoromethyl)-[1,2,4]triazolo[4,3-a]pyridin-7-yl)propanoic Acid]	102

Same assay, conditions: Homo sapiens, HEK293, 24 h, average of results obtained

SMILES	EC50 [nM]
CCn1nnc2c(C)c([C@H](CC(=O)O)c3ccc(C)c(CN4C[C@@H]5CCCN5c5ccccc5S4(=O)=O)c3)ccc21 (relative stereo) [Example 149, (*R)-3-[3-[(5,5-Dioxo-7a,8,9,10-tetrahydro-7H-pyrrolo[2,1-d][1,2,5]benzothiadiazepin-6-yl)methyl]-4-methyl-phenyl]-3-(1-ethyl-4-methyl-benzotriazol-5-yl)propanoic Acid]	250
Cc1ccc([C@H](CC(=O)O)c2ccn3c(C(F)(F)F)nnc3c2C)cc1CN1C[C@]2(C)CCCN2c2ncccc2S1(=O)=O (relative stereo) [Example 186, (*S)-3-(4-Methyl-3-(((*S)-7a-methyl-5,5-dioxido-7a,8,9,10-tetrahydropyrido[2,3-f]pyrrolo[2,1-d][1,2,5]thiadiazepin-6(7H)-yl)methyl)phenyl)-3-(8-methyl-3-(trifluoromethyl)-[1,2,4]triazolo[4,3-a]pyridin-7-yl)propanoic Acid]	47
Cc1ccc([C@H](CC(=O)O)c2ccn3c(C(F)(F)F)nnc3c2C)cc1CN1C[C@H]2CCCCN2c2ncc(Cl)cc2S1(=O)=O (relative stereo) [Example 193, (*S)-3-(3-(((*R)-3-Chloro-5,5-dioxido-7,7a,8,9,10,11-hexahydro-6H-dipyrido[2,1-d:2′,3′-f][1,2,5]thiadiazepin-6-yl)methyl)-4-methylphenyl)-3-(8-methyl-3-(trifluoromethyl)-[1,2,4]triazolo[4,3-a]pyridin-7-yl)propanoic Acid]	1.7
CC[C@@H]1CN(Cc2cc([C@H](CC(=O)O)c3ccn4c(C(F)(F)F)nnc4c3C)ccc2C)S(=O)(=O)c2cc(C)cnc2O1 (relative stereo) [Example 194, (*S)-3-(3-(((*R)-4-Ethyl-8-methyl-1,1-dioxido-3,4-dihydro-2H-pyrido[2,3-b][1,4,5]oxathiazepin-2-yl)methyl)-4-methylphenyl)-3-(8-methyl-3-(trifluoromethyl)-[1,2,4]triazolo[4,3-a]pyridin-7-yl)propanoic Acid]	2
Cc1ccc([C@H](CC(=O)O)c2ccn3c(C(F)(F)F)nnc3c2C)cc1CN1C[C@@H]2CCCCN2c2ncc(C(F)(F)F)cc2S1(=O)=O (relative stereo) [Example 198, (*S)-3-(3-(((*S)-5,5-Dioxido-3-(trifluoromethyl)-7,7a,8,9,10,11-hexahydro-6H-dipyrido[2,1-d:2′,3′-f][1,2,5]thiadiazepin-6-yl)methyl)-4-methylphenyl)-3-(8-methyl-3-(trifluoromethyl)-[1,2,4]triazolo[4,3-a]pyridin-7-yl)propanoic Acid]	5.3
Cc1ccc([C@H](CC(=O)O)c2ccn3c(C(F)(F)F)nnc3c2C)cc1CN1C[C@H]2CCCCN2c2ncc(C(F)(F)F)cc2S1(=O)=O (relative stereo) [Example 199, (*S)-3-(3-(((*R)-5,5-Dioxido-3-(trifluoromethyl)-7,7a,8,9,10,11-hexahydro-6H-dipyrido[2,1-d:2′,3′-f][1,2,5]thiadiazepin-6-yl)methyl)-4-methylphenyl)-3-(8-methyl-3-(trifluoromethyl)-[1,2,4]triazolo[4,3-a]pyridin-7-yl)propanoic Acid]	3.3
Cc1ccc([C@H](CC(=O)O)c2ccn3c(C(F)(F)F)nnc3c2C)cc1CN1C[C@@H]2CCCCN2c2nc(C#N)ccc2S1(=O)=O (relative stereo) [Example 202, (*S)-3-(3-(((*S)-2-Cyano-5,5-dioxido-7,7a,8,9,10,11-hexahydro-6H-dipyrido[2,1-d:2′,3′-f][1,2,5]thiadiazepin-6-yl)methyl)-4-methylphenyl)-3-(8-methyl-3-(trifluoromethyl)-[1,2,4]triazolo[4,3-a]pyridin-7-yl)propanoic Acid]	13
Cc1ccc([C@H](CC(=O)O)c2ccn3c(C(F)(F)F)nnc3c2C)cc1CN1C[C@@H]2CCCCN2c2nc(C(N)=O)ccc2S1(=O)=O (relative stereo) [Example 203, (*S)-3-(3-(((*S)-2-Carbamoyl-5,5-dioxido-7,7a,8,9,10,11-hexahydro-6H-dipyrido[2,1-d:2′,3′-f][1,2,5]thiadiazepin-6-yl)methyl)-4-methylphenyl)-3-(8-methyl-3-(trifluoromethyl)-[1,2,4]triazolo[4,3-a]pyridin-7-yl)propanoic Acid]	150
Cc1ccc([C@H](CC(=O)O)c2ccn3c(C(F)(F)F)nnc3c2C)cc1CN1C[C@H]2CCCCN2c2nc(C#N)ccc2S1(=O)=O (relative stereo) [Example 204, (*S)-3-(3-(((*R)-2-Cyano-5,5-dioxido-7,7a,8,9,10,11-hexahydro-6H-dipyrido[2,1-d:2′,3′-f][1,2,5]thiadiazepin-6-yl)methyl)-4-methylphenyl)-3-(8-methyl-3-(trifluoromethyl)-[1,2,4]triazolo[4,3-a]pyridin-7-yl)propanoic Acid]	5.9
Cc1ccc([C@H](CC(=O)O)c2ccn3c(C(F)(F)F)nnc3c2C)cc1CN1C[C@@H]2CCCN2c2ncc(C#N)cc2S1(=O)=O (relative stereo) [Example 206, (*S)-3-(3-(((S)-3-Cyano-5,5-dioxido-7a,8,9,10-tetrahydropyrido[2,3-f]pyrrolo[2,1-d][1,2,5]thiadiazepin-6(7H)-yl)methyl)-4-methylphenyl)-3-(8-methyl-3-(trifluoromethyl)-[1,2,4]triazolo[4,3-a]pyridin-7-yl)propanoic Acid]	14
Cc1ccc([C@H](CC(=O)O)c2ccc3c(nnn3C3CC3)c2C)cc1CN1C[C@]2(C)CCCN2c2ncccc2S1(=O)=O (relative stereo) [Example 219, (*S)-3-(1-Cyclopropyl-4-methyl-1H-benzo[d][1,2,3]triazol-5-yl)-3-(4-methyl-3-(((*S)-7a-methyl-5,5-dioxido-7a,8,9,10-tetrahydropyrido[2,3-f]pyrrolo[2,1-d][1,2,5]thiadiazepin-6(7H)-yl)methyl)phenyl)propanoic Acid]	4.5
Cc1ccc([C@H](CC(=O)O)c2ccn3c(C(F)(F)F)nnc3c2C)cc1CN1C[C@@H]2CCCCN2c2ccccc2S1(=O)=O (relative stereo) [Example 299, (*S)-3-(3-(((*S)-5,5-Dioxido-7,7a,8,9,10,11-hexahydro-6H-benzo[f]pyrido[2,1-d][1,2,5]thiadiazepin-6-yl)methyl)-4-methylphenyl)-3-(8-methyl-3-(trifluoromethyl)-[1,2,4]triazolo[4,3-a]pyridin-7-yl)propanoic Acid]	11.4
Cc1cnc2c(c1)S(=O)(=O)N(Cc1cc([C@H](CC(=O)O)c3ccn4c(C(F)(F)F)nnc4c3C)ccc1C)C[C@@H]1CCCCN21 (relative stereo) [Example 307, (*S)-3-(4-methyl-3-(((*S)-3-methyl-5,5-dioxido-7,7a,8,9,10,11-hexahydro-6H-dipyrido[2,1-d:2′,3′-f][1,2,5]thiadiazepin-6-yl)methyl)phenyl)-3-(8-methyl-3-(trifluoromethyl)-[1,2,4]triazolo[4,3-a]pyridin-7-yl)propanoic Acid]	2
Cc1ccc([C@H](CC(=O)O)c2ccn3c(C(F)(F)F)nnc3c2C)cc1CN1C[C@@H]2CCCCN2c2ncc(F)cc2S1(=O)=O (relative stereo) [Example 309, (*S)-3-(3-(((*S)-3-fluoro-5,5-dioxido-7,7a,8,9,10,11-hexahydro-6H-dipyrido[2,1-d:2′,3′-f][1,2,5]thiadiazepin-6-yl)methyl)-4-methylphenyl)-3-(8-methyl-3-(trifluoromethyl)-[1,2,4]triazolo[4,3-a]pyridin-7-yl)propanoic Acid]	0.9
Cc1ccc([C@H](CC(=O)O)c2ccn3c(C(F)(F)F)nnc3c2C)cc1CN1C[C@H]2CCCCN2c2ncc(F)cc2S1(=O)=O (relative stereo) [Example 310, (*S)-3-(3-(((*R)-3-fluoro-5,5-dioxido-7,7a,8,9,10,11-hexahydro-6H-dipyrido[2,1-d:2′,3′-f][1,2,5]thiadiazepin-6-yl)methyl)-4-methylphenyl)-3-(8-methyl-3-(trifluoromethyl)-[1,2,4]triazolo[4,3-a]pyridin-7-yl)propanoic Acid]	3
Cc1ccc([C@H](CC(=O)O)c2ccn3c(C(F)F)nnc3c2C)cc1CN1C[C@@H]2CCCCN2c2ncccc2S1(=O)=O (relative stereo) [Example 447, (*S)-3-(3-(Difluoromethyl)-8-methyl-[1,2,4]triazolo[4,3-a]pyridin-7-yl)-3-(3-(((*S)-5,5-dioxido-7,7a,8,9,10,11-hexahydro-6H-dipyrido[2,1-d:2′,3′-f][1,2,5]thiadiazepin-6-yl)methyl)-4-methylphenyl)propanoic Acid]	2.93
Cc1ccc([C@H](CC(=O)O)c2ccn3c(C(F)(F)F)nnc3c2C)cc1CN1C[C@H]2CCC(F)(F)CN2c2ncccc2S1(=O)=O (relative stereo) [Example 454, (*S)-3-(3-(((*R)-10,10-difluoro-5,5-dioxido-7,7a,8,9,10,11-hexahydro-6H-dipyrido[2,1-d:2′,3′-f][1,2,5]thiadiazepin-6-yl)methyl)-4-methylphenyl)-3-(8-methyl-3-(trifluoromethyl)-[1,2,4]triazolo[4,3-a]pyridin-7-yl)propanoic Acid]	38.3
